Reference: US20170216251A1, “USE OF (+)-1-(3,4-DICHLOROPHENYL)-3-AZABICYCLO[3.1.0]HEXANE TO TREAT ADDICTIVE AND ALCOHOL-RELATED DISORDERS” (priority 2011, published 2017)
“Also recorded” adds a separate entry of the source.

Legend:
[1] = patients with a preexisting cardiovascular condition, FDA News Release 2010, James et al.; cited from earlier work
kidney tubules = details: cynomolgus monkeys; Guha et al., 2011; cited from earlier work
[2] = trial for use in weight loss; Astrup et al., 2008; cited from earlier work
Parkinson's Disease = details: Phase II clinical trial; Rascol et al., 2008; cited from earlier work
[3] = tested on: high-alcohol preferring (HAP) mouse; test: binge operant responding experiment in high-alcohol preferring (HAP) mice; format: in vivo; details: intraperitoneal 25, 50 or 75 mg/kg, FIG. 2
Procedure: The efficacy of (+)-1-(3,4-dichlorophenyl)-3-azabicyclo[3.1.0]hexane to reduce alcohol-drinking behavior was evaluated in the genetically selected high-alcohol preferring (HAP) mouse, an animal model for human alcohol abuse. The effects of (+)-1-(3,4-dichlorophenyl)-3-azabicyclo[3.1.0]hexane on HAP mice were examined in a binge operant responding experiment, using standard protocols.
HAP mice were obtained from the Alcohol Research Center at Indiana University School of Medicine. Animals were housed individually at an ambient temperature of 21° C., with a normal 12 hour light/dark cycle. […]
Behavioral testing was conducted in standard operant chambers (Coulbourn Instruments, Allentown, Pa.) equipped with two removable levers and two dipper fluid delivery systems enclosed in sound-attenuated cubicles as previously described (Cook et al., 2004). […] Responses and reinforcements were recorded and controlled using the 4.0 Coulbourn L2T2 operant software package. […]
For the alcohol and sucrose maintained responding studies, (+)-1-(3,4-dichlorophenyl)-3-azabicyclo[3.1.0]hexane [25, 50, or 75 mg/kg] was injected into each HAP mouse, followed by immediate placement in an operant chamber. […] Six HAP mice were evaluated with each concentration of (+)-1-(3,4-dichlorophenyl)-3-azabicyclo[3.1.0]hexane [25, 50, or 75 mg/kg].

[4] = tested on: alcohol-preferring (P) rat; test: binge operant responding experiment in alcohol-preferring (P) rats; format: in vivo
Procedure: P rats were obtained from the Alcohol Research Center at Indiana University School of Medicine. Male P rats were used in all experiments, and were approximately 4-5 months of age and weighed between 420 and 580 g at the outset. Animals were housed individually at an ambient temperature of 21° C., with a normal 12 hour light/dark cycle. All rats were provided ad libitum access to food and water, except during training for operant self-administration studies, during which rats were fluid deprived 23 hr daily during the first 5 days of the training phase. Thereafter, these animals were maintained on ad libitum food and water. All training and experimental sessions for all subjects took place between 9 a.m. and 5 p.m. […] Deionized water was administered as the control injection. Behavioral testing was conducted in standard operant chambers (Coulbourn Instruments, Allentown, Pa.) equipped with two removable levers and two dipper fluid delivery systems enclosed in sound-attenuated cubicles as previously described (Cook et al., 2004). All dipper presentations provided a 1.5-sec access to a 0.1-ml dipper, followed by a 3-sec time out period. […] Responses and reinforcements were recorded and controlled using the 4.0 Coulbourn […] operant software package. […]

serotonin transporter = biological target: T1, serotonin transporter (Homo sapiens, UniProt P31645); details: PET occupancy study at the doses examined; DeLorenzo et al., 2011; cited from earlier work
T1 construct: host or cells: in vivo brain (PET)
T1 sequence (P31645 whole entry): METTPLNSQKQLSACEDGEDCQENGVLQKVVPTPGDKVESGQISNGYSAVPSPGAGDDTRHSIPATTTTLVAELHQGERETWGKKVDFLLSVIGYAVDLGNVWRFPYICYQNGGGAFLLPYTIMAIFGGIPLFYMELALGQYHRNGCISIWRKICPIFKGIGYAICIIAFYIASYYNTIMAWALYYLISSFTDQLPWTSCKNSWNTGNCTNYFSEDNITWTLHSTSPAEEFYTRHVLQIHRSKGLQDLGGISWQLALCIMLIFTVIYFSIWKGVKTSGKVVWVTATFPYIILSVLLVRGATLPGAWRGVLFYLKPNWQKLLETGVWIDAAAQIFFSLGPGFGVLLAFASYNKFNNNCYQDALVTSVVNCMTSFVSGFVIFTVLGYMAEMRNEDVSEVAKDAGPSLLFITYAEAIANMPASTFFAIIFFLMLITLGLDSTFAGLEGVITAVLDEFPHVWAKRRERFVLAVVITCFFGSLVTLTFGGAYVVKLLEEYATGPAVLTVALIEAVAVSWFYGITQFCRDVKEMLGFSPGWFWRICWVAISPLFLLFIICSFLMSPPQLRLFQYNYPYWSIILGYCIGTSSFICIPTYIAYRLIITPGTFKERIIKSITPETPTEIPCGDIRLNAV

[5] = Phase II, compared to placebo; Sepracor Press Release 2009; cited from earlier work

In the case of `CC(C)CC(N(C)C)C1(c2ccc(Cl)cc2)CCC1` (stereo not shown) [sibutramine], the “risk of serious heart events (non-fatal heart attack, non-fatal stroke)” value [1] is listed as “significant increase in the risk of serious heart events”.
In the case of `CNC[C@H](c1ccc2ccccc2c1)[C@H](O)c1ccccc1` [PRC200-SS], the nephrotoxicity (kidney tubules) is given as “acute degenerative damage of kidney tubules”.
In the case of `CCOC[C@@H]1[C@@H](c2ccc(Cl)c(Cl)c2)C[C@@H]2CC[C@H]1N2C` [Tensofensine], the adverse events [2] is given as “gastrointestinal adverse events (dry mouth, nausea, abdominal pain, constipation, diarrhea)” and the “efficacy in treatment of Parkinson's Disease” value (Parkinson's Disease) is given as “not be efficacious”.
With `Clc1ccc([C@]23CNC[C@H]2C3)cc1Cl` [(+)-1-(3,4-dichlorophenyl)-3-azabicyclo[3.1.0]hexane] the “effect on sucrose consumption (control sucrose responding)” value ([3]; HAP mice maintained on sucrose water) was “lack of effect”, the “effect on alcohol consumption (ethanol responding)” value ([3]; HAP mice, 90 min operant session, EtOH 10% v/v, FR4) was “demonstrates a dose response; also recorded: dose-dependent decrease in alcohol consumption” and the “effect on sucrose consumption (sucrose maintained responding)” value ([4]; P rats maintained on sucrose water, oral 3.1-50 mg/kg, 90 min operant session, FIG. 1B) was “lack of effect”. The “effect on ethanol consumption (alcohol maintained responding)” value ([4]; P rats, oral 3.1, 6.3, 12.5, 25 or 50 mg/kg 25 min before 90 min operant session, EtOH 10% v/v, FR4, FIG. 1A) was “demonstrates a dose response; also recorded: decrease in alcohol consumption that was dose-dependent”.
For `N[C@@H]1CC[C@@H](c2ccc(Cl)c(Cl)c2)c2ccccc21` [SEP-225289], the serotonin transporter occupancy (serotonin transporter) is listed as “too low at the doses examined to produce an antidepressant effect” and the “primary efficacy endpoint as antidepressant” value [5] is listed as “did not meet the primary efficacy endpoint compared to placebo”.
